Converted amounts (≈) assume the structure as drawn. The source made the active and inactive calls. No cut-off for these calls is given here.
Experiments:
[1] = test system: Staphylococcus aureus; assay: (§1) In vivo antibacterial activity against methicillin resistant Staphylococcus aureus clinical isolate 15-1 infected in kunming mouse assessed as animal survival rate at 1 mg/kg, po administered 6 hrs prior to bacterial infection and at 0 and 6 hrs post infection and measured for 7 days (reference value: 12.5 %); assay type: functional; settings: 15-1, po, 168 h, time 7 day
[2] = AUClast in Kunming mouse at 10 mg/kg, po measured upto 72 hrs by HPLC analysis; assay type: ADME, organism-based; set-up: route oral, dose 10 mg/kg, time <=72; settings: in vivo
[3] = Protein binding in mouse plasma at 5 uM incubated for 5 hrs by equilibrium dialysis based LC-MS/MS analysis; assay type: ADME, cell-free; settings: read-out: PPB
[4] = test system: Staphylococcus aureus; assay: Potency index, ratio of vancomycin MIC to test compound MIC for antibacterial activity against methicillin-resistant Staphylococcus aureus clinical isolate 15-2 assessed as inhibition of bacterial growth incubated for 18 to 24 hrs by broth microdilution method; assay type: functional; settings: time 18-24 hrs
[5] = test system: Enterococcus faecium; assay: Antibacterial activity against Enterococcus faecium clinical isolate 15-1 assessed as inhibition of bacterial growth incubated for 18 to 24 hrs by broth microdilution method; assay type: functional; settings: time 18-24 hrs
[6] = test system: Staphylococcus aureus; assay: Potency index, ratio of vancomycin MIC to test compound MIC for antibacterial activity against methicillin-resistant Staphylococcus aureus clinical isolate 15-9 assessed as inhibition of bacterial growth incubated for 18 to 24 hrs by broth microdilution method; assay type: functional; settings: time 18-24 hrs
[7] = test system: Staphylococcus aureus; assay: as §1, with “at 9” for “at 1”; assay type: functional; settings: 15-1, po, 168 h, time 7 day
[8] = Tmax in Kunming mouse at 10 mg/kg, po measured upto 72 hrs by HPLC analysis; assay type: ADME, organism-based; settings: in vivo
[9] = test system: Staphylococcus aureus; assay: Potency index, ratio of vancomycin MIC to test compound MIC for antibacterial activity against methicillin-resistant Staphylococcus aureus clinical isolate 15-3 assessed as inhibition of bacterial growth incubated for 18 to 24 hrs by broth microdilution method; assay type: functional; settings: time 18-24 hrs
[10] = Selectivity index, ratio of IC50 for human HepG2 cells to MIC for methicillin-resistant Staphylococcus aureus; assay type: toxicity
[11] = test system: Staphylococcus aureus; assay: Potency index, ratio of vancomycin MIC to test compound MIC for antibacterial activity against methicillin resistant and vancomycin-intermediate sensitive Staphylococcus aureus ATCC 700788 assessed as inhibition of bacterial growth incubated for 18 to 24 hrs by broth microdilution method; assay type: functional; settings: time 18-24 hrs
[12] = Half life in Kunming mouse at 10 mg/kg, po measured upto 72 hrs by HPLC analysis; assay type: ADME, organism-based; settings: in vivo
[13] = test system: Staphylococcus aureus; assay: Bactericidal activity against methicillin-resistant Staphylococcus aureus clinical isolate 15-1 assessed as reduction in log10CFU at 1 to 2 times MIC measured after 24 hrs by time kill kinetics analysis; assay type: functional, organism-based
[14] = test system: Enterococcus faecium; assay: Antibacterial activity against Enterococcus faecium clinical isolate 15-2 assessed as inhibition of bacterial growth incubated for 18 to 24 hrs by broth microdilution method; assay type: functional; settings: time 18-24 hrs
[15] = test system: Staphylococcus aureus; assay: Potency index, ratio of vancomycin MIC to test compound MIC for antibacterial activity against methicillin resistant and vancomycin-intermediate sensitive Staphylococcus aureus ATCC 700699 assessed as inhibition of bacterial growth incubated for 18 to 24 hrs by broth microdilution method; assay type: functional; settings: time 18-24 hrs
[16] = test system: Staphylococcus epidermidis; assay: Potency index, ratio of vancomycin MIC to test compound MIC for antibacterial activity against methicillin-sensitive Staphylococcus epidermidis clinical isolate 15-4 assessed as inhibition of bacterial growth incubated for 18 to 24 hrs by broth microdilution method; assay type: functional; settings: time 18-24 hrs
[17] = test system: Staphylococcus aureus; assay: Potency index, ratio of vancomycin MIC to test compound MIC for antibacterial activity against methicillin-resistant Staphylococcus aureus clinical isolate 15-7 assessed as inhibition of bacterial growth incubated for 18 to 24 hrs by broth microdilution method; assay type: functional; settings: time 18-24 hrs
[18] = test system: Staphylococcus aureus; assay: Antibacterial activity against methicillin-resistant Staphylococcus aureus clinical isolate 15-3 assessed as inhibition of bacterial growth incubated for 18 to 24 hrs by broth microdilution method; assay type: functional; settings: time 18-24 hrs
[19] = test system: Staphylococcus aureus; assay: Antibacterial activity against methicillin-resistant Staphylococcus aureus clinical isolate 15-6 assessed as inhibition of bacterial growth incubated for 18 to 24 hrs by broth microdilution method; assay type: functional; settings: time 18-24 hrs
[20] = Metabolic stability in mouse liver microsomes assessed as intrinsic clearance preincubated for 5 mins followed by NADPH addition and measured up to 60 mins by LC-MS/MS analysis; assay type: ADME, Microsome; settings: time 65 min, read-out: CLH
[21] = test system: Staphylococcus epidermidis; assay: Antibacterial activity against methicillin-resistant Staphylococcus epidermidis clinical isolate 15-3 assessed as inhibition of bacterial growth incubated for 18 to 24 hrs by broth microdilution method; assay type: functional; settings: time 18-24 hrs
[22] = test system: Staphylococcus aureus; assay: Bactericidal activity against methicillin-resistant Staphylococcus aureus clinical isolate 15-1 assessed as reduction in log10CFU at 4 times MIC measured over 24 hrs by time kill kinetics analysis; assay type: functional
[23] = test system: Staphylococcus aureus; assay: as §1, with “at 3” for “at 1”; assay type: functional; settings: 15-1, po, 168 h, time 7 day
[24] = test system: Staphylococcus epidermidis; assay: Antibacterial activity against methicillin-sensitive Staphylococcus epidermidis clinical isolate 15-4 assessed as inhibition of bacterial growth incubated for 18 to 24 hrs by broth microdilution method; assay type: functional; settings: time 18-24 hrs
[25] = test system: Enterococcus faecalis; assay: Antibacterial activity against vancomycin-resistant Enterococcus faecalis ATCC 51575 assessed as inhibition of bacterial growth incubated for 18 to 24 hrs by broth microdilution method; assay type: functional; settings: time 18-24 hrs
[26] = Metabolic stability in mouse liver microsomes assessed as half life preincubated for 5 mins followed by NADPH addition and measured up to 60 mins by LC-MS/MS analysis; assay type: ADME, Microsome; settings: time 65 min
[27] = test system: Staphylococcus aureus; assay: Potency index, ratio of vancomycin MIC to test compound MIC for antibacterial activity against methicillin-resistant Staphylococcus aureus clinical isolate 15-6 assessed as inhibition of bacterial growth incubated for 18 to 24 hrs by broth microdilution method; assay type: functional; settings: time 18-24 hrs
[28] = test system: Enterococcus faecalis; assay: Antibacterial activity against Enterococcus faecalis clinical isolate 15-2 assessed as inhibition of bacterial growth incubated for 18 to 24 hrs by broth microdilution method; assay type: functional; settings: time 18-24 hrs
[29] = Cmax in Kunming mouse at 10 mg/kg, po measured upto 72 hrs by HPLC analysis; assay type: ADME, organism-based; set-up: route oral, dose 10 mg/kg, time <=72; settings: in vivo
[30] = test system: Enterococcus faecium; assay: Potency index, ratio of vancomycin MIC to test compound MIC for antibacterial activity against Enterococcus faecium clinical isolate 15-1 assessed as inhibition of bacterial growth incubated for 18 to 24 hrs by broth microdilution method; assay type: functional; settings: time 18-24 hrs
[31] = test system: Enterococcus faecalis; assay: Potency index, ratio of vancomycin MIC to test compound MIC for antibacterial activity against Enterococcus faecalis clinical isolate 15-1 assessed as inhibition of bacterial growth incubated for 18 to 24 hrs by broth microdilution method; assay type: functional; settings: time 18-24 hrs
[32] = test system: Staphylococcus aureus; assay: Antibacterial activity against methicillin-resistant Staphylococcus aureus clinical isolate 15-8 assessed as inhibition of bacterial growth incubated for 18 to 24 hrs by broth microdilution method; assay type: functional; settings: time 18-24 hrs
[33] = test system: Staphylococcus epidermidis; assay: Potency index, ratio of vancomycin MIC to test compound MIC for antibacterial activity against methicillin-sensitive Staphylococcus epidermidis clinical isolate 15-3 assessed as inhibition of bacterial growth incubated for 18 to 24 hrs by broth microdilution method; assay type: functional; settings: time 18-24 hrs
[34] = Toxicity in Kunming mouse assessed as death at 30 mg/kg, po; assay type: organism-based; settings: in vivo
[35] = Metabolic stability in mouse plasma assessed as half life measured upto 120 mins by LC-MS/MS analysis; assay type: ADME, cell-free
[36] = test system: Enterococcus faecalis; assay: Antibacterial activity against vancomycin-resistant Enterococcus faecalis ATCC 51299 assessed as inhibition of bacterial growth incubated for 18 to 24 hrs by broth microdilution method; assay type: functional; settings: time 18-24 hrs
[37] = test system: Staphylococcus aureus; assay: Potency index, ratio of vancomycin MIC to test compound MIC for antibacterial activity against methicillin-resistant Staphylococcus aureus clinical isolate 15-1 assessed as inhibition of bacterial growth incubated for 18 to 24 hrs by broth microdilution method; assay type: functional; settings: time 18-24 hrs

`CCn1c(=O)c(C(=O)Nc2nnc(-c3nccs3)s2)c(O)c2ccccc21` gave a survival at 1 mg/kg [1] of 37.5%, an AUC(0-t) at 72 h [2] of 2540 ng·h/mL and a fraction unbound at 5 h, 5 µM [3] of 0.001. The Ratio [4] was 2, the MIC [5] was 1 µg/mL (≈ 2.5 µM) and the Ratio [6] was 2. The survival at 9 mg/kg [7] was 87.5%, the Tmax [8] was 1 h and the Ratio [9] was 2. It also gave a selectivity ratio [10] of 111, a Ratio [11] of 2 and a half-life [12] of 2.3 h. For the same molecule, the Activity [13] was “Active”, the MIC [14] was 1 µg/mL (≈ 2.5 µM) and the Ratio [15] was 2. For the same molecule, the Ratio [16] was 2, the Ratio [17] was 2 and the MIC [18] was 0.5 µg/mL (≈ 1.25 µM). The MIC [19] was 0.5 µg/mL (≈ 1.25 µM), the microsomal CLint [20] was 38.9 µL/min/mg and the MIC [21] was 0.5 µg/mL (≈ 1.25 µM). The Activity [22] was >3 log10CFU/ml, the survival at 3 mg/kg [23] was 50% and the MIC [24] was 0.5 µg/mL (≈ 1.25 µM). The MIC [25] was 0.5 µg/mL (≈ 1.25 µM), the half-life [26] was 0.593 h and the Ratio [27] was 2. It also gave an MIC [28] of 0.5 µg/mL (≈ 1.25 µM), a Cmax [29] of 827 ng/mL and a Ratio [30] of 2. It also gave a Ratio [31] of 2, an MIC [32] of 0.5 µg/mL (≈ 1.25 µM) and a Ratio [33] of 2. For the same molecule, the Activity [34] was “Non-Toxic”, the half-life [35] was 8.39 h and the MIC [36] was 0.5 µg/mL (≈ 1.25 µM). It also gave a Ratio [37] of 2.
